Patent publication US12251434B2 (priority 2021, dated 2025)

Tested on: hyaluronic acid
Assay type: cell-based

4-Methylumbelliferone [4-MU]
Hyaluronic acid with 4-MU, HIS-SARS-CoV-2-3 overexpressed: 30.02 ± 2.00 ng/mL | Hyaluronic acid with 4-MU, HIS-SARS-CoV-2-4 overexpressed: 19.76 ± 11.3 ng/mL
